Target: T1, mineralocorticoid receptor (Homo sapiens, UniProt P08235)
T1 sequence (P08235 1-984): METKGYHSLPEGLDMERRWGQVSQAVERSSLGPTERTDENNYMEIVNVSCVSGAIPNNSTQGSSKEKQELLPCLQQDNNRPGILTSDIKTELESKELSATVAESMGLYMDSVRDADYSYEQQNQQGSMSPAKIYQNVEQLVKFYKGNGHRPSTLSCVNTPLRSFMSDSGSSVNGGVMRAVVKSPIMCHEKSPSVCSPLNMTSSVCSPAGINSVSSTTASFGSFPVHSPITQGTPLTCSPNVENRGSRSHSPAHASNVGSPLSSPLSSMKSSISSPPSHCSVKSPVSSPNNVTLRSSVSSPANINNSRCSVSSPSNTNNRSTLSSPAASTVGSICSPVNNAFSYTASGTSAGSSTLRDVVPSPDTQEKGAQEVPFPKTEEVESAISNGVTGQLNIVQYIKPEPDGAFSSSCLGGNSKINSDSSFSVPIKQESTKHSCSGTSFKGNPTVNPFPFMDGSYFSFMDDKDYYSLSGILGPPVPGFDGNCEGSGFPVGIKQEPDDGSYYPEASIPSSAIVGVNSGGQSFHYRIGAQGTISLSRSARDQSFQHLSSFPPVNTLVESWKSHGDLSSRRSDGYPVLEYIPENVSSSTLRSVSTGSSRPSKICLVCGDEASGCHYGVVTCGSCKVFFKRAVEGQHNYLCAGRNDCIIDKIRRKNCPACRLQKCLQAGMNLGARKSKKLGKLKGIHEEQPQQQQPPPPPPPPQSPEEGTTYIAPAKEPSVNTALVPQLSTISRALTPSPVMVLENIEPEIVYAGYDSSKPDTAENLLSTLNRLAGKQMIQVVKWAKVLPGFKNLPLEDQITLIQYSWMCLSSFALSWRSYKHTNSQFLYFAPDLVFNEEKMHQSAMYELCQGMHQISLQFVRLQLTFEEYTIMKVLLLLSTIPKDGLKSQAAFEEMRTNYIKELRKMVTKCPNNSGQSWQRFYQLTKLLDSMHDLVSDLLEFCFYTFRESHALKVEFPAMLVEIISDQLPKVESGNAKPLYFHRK
Assay: In vitro reporter assays for steroid hormone receptors, agonist and antagonist modes
Type: cell-based
Conditions: in vitro reporter assays (unpublished observations)
Excerpt: In addition to the dissociation of […] (lost) and transrepression (retained) activities, vamorolone has changed additional sub-activities of traditional glucocorticoids. Cortisol and pharmacological glucocorticoids show high affinity for the mineralocorticoid receptor, similar to its physiological ligand, aldosterone. Glucocorticoids and aldosterone act as agonists for the mineralocorticoid receptor, and high circulating levels of pharmacological glucocorticoids result in salt imbalance and water weight gain (Cushingoid appearance) via the reninangiotensin system. […] Vamorolone can not be metabolized by 11β-Hydroxysteroid dehydrogenase (11BHSD) isoforms, and thus should show greater stability in aldosterone-responsive cells (e.g. not inactivated as cortisol and glucocorticoids are).

Q: `C[C@@H]1C[C@H]2[C@@H]3CCC4=CC(=O)C=C[C@]4(C)C3=CC[C@]2(C)[C@@]1(O)C(=O)CO` [vamorolone] was tested. Which “activity at the mineralocorticoid receptor” value did it give?
A: potent antagonist

Source: article PMC6136660 (Steroids, 2018)
